In patent US10213407B2, “Compounds and methods for inhibiting production of trimethylamine” (The Procter & Gamble Company, priority 2015, dated 2019):

tested on: Proteus mirabilis 29906 (Pm) lysate; assay: Inhibition of formation of TMA from choline in Proteus mirabilis lysate (d9-choline to d9-TMA, LC-MS/MS); format: biochemical; settings: conversion of choline to TMA; Pm lysate 1.5 mg/mL protein, 50 μM d9-choline chloride, 37° C., two hours; read-out: TMA Inhibition (IC50, mol/L)
Description: EXAMPLE 2 Assay for identifying and characterizing compounds that inhibit the formation of TMA from choline.
This example provides an exemplary assay for identifying and characterizing compounds that inhibit the formation of TMA from choline.
Proteus mirabilis 29906 (Pm) strain was grown aerobically overnight in 500 ml of Nutrient Broth media (3 g/L beef extract, 5 g/L Peptone; Difco #234000) at 37° C. with 250 rpm shaking. The biomass was pelleted by centrifugation at 6000×g for 12 minutes at 4° C. The cell pellet was suspended in 240 mL of ice-cold 1× Phosphate Buffered Saline (Ca^2+ and Mg^2+ free). Ninety micrograms of Lysozyme (Sigma #L6876 Lot #SLBG8654V; Sigma-Aldrich Corp., St. Louis, Mo.) was added and incubated with 320 rpm shaking for 30 minutes at 4° C. Lysis was achieved via French press with a 4° C. prechilled 1″ diameter chamber at 1000 psi (high ratio; internal PSI equivalent ˜16000). The lysate was centrifuged at 6,000×g for 12 minutes at 4° C. to pellet extra debris. A protein concentration of the centrifuged lysate supernatant was determined by a BCA Protein Assay Kit (Pierce #23225; Thermo Fisher Scientific Co., Waltham, Mass.) and protein concentration adjusted to 3 mg/ml with 1× Dulbecco's phosphate buffered saline (DPBS). The centrifuged supernatant lysate was aliquoted into 20 mL volumes and stored frozen at −80° C.
Proteus mirabilis 29906 (Pm) lysate was diluted to 1.5 mg/mL protein with 1×DPBS. Choline chloride (CC) (1M stock) was added to reach a final concentration of 2.5 mM choline chloride. The mixture was mixed using a vortex mixer for approximately 15 seconds and incubated at 37° C. for 22 hours. After incubation, 150 μL of CC-treated Pm lysate was dispensed into a deep-well plate (polypropylene, 2 mL volume, Corning Axygen catalogue #P-DW-20-C). Candidate IC50 compounds from TABLE 1 and vehicle control (respective vehicle control of DMSO or water), or control compounds (IC50 control, 8-Quinolinol hemisulfate salt (Sigma Catalog #55100)) were added at a 1:100 dilution (e.g., 1.5 μL per well). The plates were agitated on a plate shaker for 1 minute. d9-choline chloride (1.5 μL of 5 mM) was added to all wells to reach a final d9-choline chloride concentration of 50 μM.
The plates were again agitated on a plate shaker for 1 minute and incubated at 37° C. for two hours. After incubation, 1.5 μL of formic acid was added to each well (final concentration=1% formic acid). The plates were agitated on a plate shaker for 1 minute and placed on ice. Cell lysate samples were spiked with stable isotope labeled internal standard (22.5 μL of 6 μg/mL of 13C3-trimethylamine (13C3-TMA) was added to each sample), then d9-trimethylamine (d9-TMA), trimethylamine (TMA) and 13C3-TMA were isolated from the lysate after protein precipitation as described below. Acetonitrile acidified with 0.1% formic acid, 600 μL, was added to each sample which was then centrifuged (2,100 g for 20 minutes) to pellet the protein and other precipitates. The supernatant was removed and analyzed as described below. The TMA, d9-TMA and 13C3-TMA in the isolated supernatant samples were subjected to gradient High Performance Liquid Chromatography (HPLC) analysis on a Waters Atlantis HILIC Silica column, from Waters Corp., Milford, Mass., (2.1×50 mm, 3 μm particles) with an Atlantis Silica HILIC Sentry guard column, from Waters Corp., Milford, Mass., (100 Å, 3 μm, 2.1 mm×10 mm), 10 mM ammonium formate in water with 0.1% formic acid as mobile phase A and 0.1% formic acid in acetonitrile as mobile phase B. Detection and quantitation was achieved by tandem mass spectrometry operating under multiple reaction monitoring (MRM) MS/MS conditions (m/z 60.1→44.1 for TMA, m/z 69.1→49.1 for d9-TMA, m/z 63.0→46.1 for 13C3-TMA). TMA and d9-TMA calibration standards (STD), prepared in 80/20/0.1% acetonitrile/Water/Formic Acid, were used to construct a regression curve by plotting the response (peak area TMA/peak area 13C3-TMA) versus concentration for each standard. […]

SMILES	IC50 [µM]
C[N+](C)(CCN=C=S)CC1CO1 (stereo not drawn) [Compound 15, N-(Oxiranylmethyl)-2-isothiocyanato-N,N-dimethylethan-1-aminium triflate]	194
S=C=NCC[N+]12CCC(CC1)CC2 [Compound 42, 1-(2-Isothiocyanatoethyl)quinuclidinium trifluoromethanesulfonate]	12.1
COCCC[N+](C)(C)CCN=C=S [Compound 21, N-(3-Methoxypropyl)-2-isothiocyanato-N,N-dimethylethan-1-aminium triflate]	31.6
CC[N+](CC)(CCCl)CCCN=C=S [Compound 25, N-(2-Chloroethyl)-3-isothiocyanato-N,N-diethylpropan-1-aminium triflate]	19.9
C[N+]1(CCN=C=S)CCC(O)CC1 (stereo not drawn) [Compound 39, 4-hydroxy-1-(2-isothiocyanatoethyl)-1-methylpiperidin-1-ium bromide]	25.9
CC[N+](CC)(CCCN=C=S)CCOCc1ccccc1 [Compound 12, N-(2-Benzyloxyethyl)-3-isothiocyanato-N,N-diethylpropan-1-aminium triflate]	29.1
S=C=NCCC[N+]12CCC(CC1)CC2 [Compound 45, 1-(3-Isothiocyanatopropyl)quinuclidinium trifluoromethanesulfonate]	115
C[N+]1(CCN=C=S)CCOCC1 [Compound 40, 4-Methyl-4-(2-isothiocyanatoethyl)morpholinium trifluoromethanesulfonate]	286
Oc1ccc[n+](CCCN=C=S)c1 [Compound 32, 3-hydroxy-1-(3-isothiocyanatopropyl)pyridin-1-ium trifluoromethanesulfonate]	1990
S=C=NCC[n+]1ccccc1 [Compound 28, 1-(2-Isothiocyanatoethyl)pyridin-1-ium bromide]	31.6
C[N+]1(CCN=C=S)CCCCC1 [Compound 41, 1-Methyl-1-(2-isothiocyanatoethyl)piperidium trifluoromethanesulfonate]	31.7
C[N+]1(CCCN=C=S)CCCCC1 [Compound 44, 1-Methyl-1-(3-isothiocyanatopropyl)piperidinium trifluoromethanesulfonate]	> 1000
C[N+](C)(CCN=C=S)CCOCc1ccccc1 [Compound 11, N-(2-Benzyloxyethyl)-2-isothiocyanato-N,N-dimethylethan-1-aminium triflate]	16.1
COCC[N+](C)(C)CCN=C=S [Compound 17, N-(2-Methoxyethyl)-2-isothiocyanato-N,N-dimethylethan-1-aminium triflate]	31.6
C[N+](C)(CCBr)CCN=C=S [Compound 14, N-(2-Bromoethyl)-2-isothiocyanato-N,N-dimethylethan-1-aminium triflate]	24.9
CC[N+](CC)(CCCN=C=S)CCOC [Compound 18, N-(2-Methoxyethyl)-3-isothiocyanato-N,N-diethylpropan-1-aminium triflate]	39.8
OCc1cccc[n+]1CCCN=C=S [Compound 31, 2-(hydroxymethyl)-1-(3-isothiocyanatopropyl)pyridin-1-ium trifluoromethanesulfonate]	251
C=C(C[N+](C)(C)CCN=C=S)C(=O)OC [Compound 38, N-(2-isothiocyanatoethyl)-2-(methoxycarbonyl)-N,N-dimethylprop-2-en-1-aminium bromide]	14.1

SMILES	IC50 [µM]
CC[N+](CC)(CCF)CCCN=C=S [Compound 27, N-(2-Fluoroethyl)-3-isothiocyanato-N,N-diethylpropan-1-aminium triflate]	31.6
CC[N+](CC)(CCCN=C=S)CC1CO1 (stereo not drawn) [Compound 16, N-(Oxiranylmethyl)-3-isothiocyanato-N,N-diethylpropan-1-aminium triflate]	39.8
CC[N+](CC)(CCCCl)CCCN=C=S [Compound 26, N-(3-Chloropropyl)-3-isothiocyanato-N,N-diethylpropan-1-aminium triflate]	50.1
C[N+](C)(CCO)CCCN=C=S [Compound 36, N-(2-hydroxyethyl)-3-isothiocyanato-N,N-dimethylpropan-1-aminium trifluoromethanesulfonate]	100
OCc1cccc[n+]1CCN=C=S [Compound 30, 1-(2-Isothiocyanatoethyl)-(2-hydroxymethyl)pyridinium triflate]	25.1
CC[N+](CC)(CCCN=C=S)CCCOC [Compound 22]	31.6
CCOCC[N+](C)(C)CCN=C=S [Compound 19, N-(2-Ethoxyethyl)-2-isothiocyanato-N,N-dimethylethan-1-aminium triflate]	63.1
Oc1ccc[n+](CCN=C=S)c1 [Compound 29, 1-(2-Isothiocyanatoethyl)-3-hydroxypyridinium bromide]	1260
CCOCC[N+](CC)(CC)CCCN=C=S [Compound 20, N-(2-Ethoxyethyl)-3-isothiocyanato-N,N-diethylpropan-1-aminium triflate]	19.9
OCC[N+]1(CCCN=C=S)CCCCC1 [Compound 35, 1-(2-hydroxyethyl)-1-(3-isothiocyanatopropyl)piperidin-1-ium trifluoromethanesulfonate]	1260
C[N+](C)(CCN=C=S)CCOc1ccccc1 [Compound 13, N-(2-Phenoxyethyl)-2-isothiocyanato-N,N-dimethylethan-1-aminium triflate]	1.33
C[N+]1(CCN=C=S)CCCCC1CO (stereo not drawn) [Compound 34, 2-(hydroxymethyl)-1-(2-isothiocyanatoethyl)-1-methylpiperidin-1-ium trifluoromethanesulfonate]	316
C[N+]1(CCCN=C=S)CCOCC1 [Compound 43, 4-Methyl-4-(3-isothiocyanatopropyl)morpholinium trifluoromethanesulfonate]	> 1000
C#CC[N+](C)(C)CCN=C=S [Compound 37, N-(2-isothiocyanatoethyl)-N,N-dimethylprop-2-yn-1-aminium bromide]	1.99
OCC[N+]1(CCN=C=S)CCCCC1 [Compound 33, 1-(2-hydroxyethyl)-1-(2-isothiocyanatoethyl)piperidin-1-ium trifluoromethanesulfonate]	200
C[N+](C)(CCCl)CCN=C=S [Compound 23, N-(2-Chloroethyl)-2-isothiocyanato-N,N-dimethylethan-1-aminium triflate]	25.1
CC[N+](CC)(CCCN=C=S)CCOc1ccccc1 [Compound 10, N-(2-Phenoxyethyl)-3-isothiocyanato-N,N-diethylpropan-1-aminium triflate]	29.6
C[N+](C)(CCCCl)CCN=C=S [Compound 24, N-(3-Chloropropyl)-2-isothiocyanato-N,N-dimethylethan-1-aminium triflate]	63.1
